Test results: patent US20130142879A1, “SUSPENSION FORMULATIONS” (INNOVATA BIOMED LIMITED, priority 2008, published 2013)

Legend:
[1] = Solubility of suspension stabilisers in HFA 134a or HFA 227 with ethanol and additives; assay type: physicochemical
Experimental: Trehalose has been determined to be insoluble (observed to be <0.12 μg/50 μl) in HFA 134a or HFA 227 with up to 12% w/w ethanol and only slightly soluble in 30% w/w ethanol (3.3 μg/[…] in HFA 134a, 2.7 μg/50 μl in HFA 227).
Leucine has been determined to be insoluble (observed to be <0.08 μg/50 μl) in HFA 134a or HFA 227 with up to 30% w/w ethanol.

[2] = Solubility of drugs within HFA 227 with ethanol addition
[3] = Solubility of drugs within HFA 134a with ethanol addition

SMILES | Solubility within HFA 227 ([2]; EtOH addition 0 % w/w) | Solubility within HFA 227 ([2]; EtOH addition 1 % w/w) | Solubility within HFA 227 ([2]; EtOH addition 5 % w/w) | Solubility within HFA 134a ([3]; EtOH addition 0 % w/w) | Solubility within HFA 134a ([3]; EtOH addition 1 % w/w) | Solubility within HFA 134a ([3]; EtOH addition 5 % w/w) | also measured
CC(C)C[C@H](N)C(=O)O [Leucine] | – | – | – | – | – | – | Solubility ([1]; 3% w/w ethanol with 0.5% w/w propylene glycol or 0.01% w/w oleic acid, HFA 134a or HFA 227): < 0.08 μg/50 μl; Solubility ([1]; 12% w/w ethanol with 1.2% w/w water, HFA 134a or HFA 227): < 0.08 μg/50 μl; Solubility ([1]; HFA 134a or HFA 227 with up to 30% w/w ethanol): < 0.08 μg/50 μl
CCCC1O[C@@H]2C[C@H]3[C@@H]4CCC5=CC(=O)C=C[C@]5(C)[C@H]4[C@@H](O)C[C@]3(C)[C@]2(C(=O)CO)O1 (some centres unmarked) [Budesonide] | 1.66 μg per 50 μl | 5.61 μg per 50 μl | 45.16 μg per 50 μl | – | – | – | –
C[N+]1(C)[C@@H]2C[C@@H](OC(=O)C(O)(c3cccs3)c3cccs3)C[C@H]1[C@@H]1O[C@@H]12 [Tiotropium Bromide] | 0.00 μg per 50 μl | 0.00 μg per 50 μl | 0.07 μg per 50 μl | 0.00 μg per 50 μl | 0.01 μg per 50 μl | 0.33 μg per 50 μl | –
CCC(=O)O[C@]1(C(=O)SCF)[C@H](C)C[C@H]2[C@@H]3C[C@H](F)C4=CC(=O)C=C[C@]4(C)[C@@]3(F)[C@@H](O)C[C@@]21C [Fluticasone Propionate] | 0.22 μg per 50 μl | 0.83 μg per 50 μl | 4.78 μg per 50 μl | – | – | – | Solubility within HFA 227 ([2]; EtOH addition 0.2 % w/w): 0.23 μg per 50 μl
COc1ccc(CC(C)NCC(O)c2ccc(O)c(NC=O)c2)cc1 (centres unmarked) [Formoterol] | 0.00 μg per 50 μl | 0.02 μg per 50 μl | 0.23 μg per 50 μl | 0.00 μg per 50 μl | 0.03 μg per 50 μl | 0.73 μg per 50 μl | –
OC[C@H]1O[C@H](O[C@H]2O[C@H](CO)[C@@H](O)[C@H](O)[C@H]2O)[C@H](O)[C@@H](O)[C@@H]1O [Trehalose] | – | – | – | – | – | – | Solubility ([2]; 30% w/w ethanol in HFA 227): 2.7 μg/50 μl
